From publication PMC10257182, “Discovery of senolytics using machine learning” (Nature Communications, 2023)
Values joined by “and” are separate entries in the source; they are usually repeats but may differ in a detail not shown here. Equal values may be shown once. Values belong to the compound of their own block, whether it stands above or below them.

Legend:
Type in all cases: cell-based, human
[1] = test system: proliferating IMR90 cells; assay: BrdU incorporation proliferation assay; settings: IMR90 cells; single replicates (SUP FIG 9G)
Procedure: 5-bromo-2′-deoxyuridine (BrdU) incorporation was used to measure the number of cells actively replicating DNA. Cells were incubated with 10 μM BrdU (85811, Sigma) for 18 h. After that, cells were fixed with 4% Paraformaldehyde, permeabilised, blocked and then stained for immunofluorescence using BrdU primary antibody (555627 BD Pharmigen), Alexa fluor secondary for detection, and DAPI staining for cell counting. Acquisition was done with a Nikon TI2 microscope and analysis was performed with ImageJ for cell counting.

[2] = test system: p16 and p21 mRNA in IMR90 ER:RAS cells; assay: p16 and p21 mRNA expression by RT-qPCR, OIS; settings: ER:RAS cells; ER:RAS DMSO = 1; n 4
Procedure: (§1) Total RNA was isolated using RNAeasy kit (Quiagen). cDNA was generated with reverse transcriptase iScript (Bio-Rad). RT-qPCR was performed using SYBR Select Master Mix (Applied Biosystems) in OneStepPlus detection system (Applied Biosystems). Oligos for amplification were: NOXA Fw-[…] and Rv-[…]; b-ACTIN Fw-[…] and Rv-[…]; IL1a Fw-[…] and Rv- […]; IL1b Fw-[…] and Rv- […]; IL8 Fw-[…] and Rv-[…]; p16 Fw-CGGTCGGAGGCCGATCCAG and Rv- […]; p21Fw-[…] and Rv- […].

[3] = test system: p16 and p21 mRNA in IMR90 cells at passage 27; assay: p16 and p21 mRNA expression by RT-qPCR, replicative senescence; settings: Replicative senescence; Replicative senescence DMSO = 1; n 3
Procedure: as §1

[4] = test system: IL1α, IL1β and IL8 mRNA in IMR90 cells at passage 27; assay: IL1α, IL1β and IL8 mRNA expression by RT-qPCR, replicative senescence; settings: Replicative senescence, OLE group mean, DMSO = 1
Procedure: as §1

[5] = test system: IL1α, IL1β and IL8 mRNA in IMR90 ER:RAS cells; assay: IL1α, IL1β and IL8 mRNA expression by RT-qPCR, OIS; settings: ER:RAS cells, RAS OLE group mean, RAS C (DMSO) = 1
Procedure: as §1

[6] = test system: senescent A549 cells (etoposide-induced); assay: Nuclei count senolytic assay, therapy-induced senescence (TIS) model, senescent cells; settings: for % Cell Survival: senescence cells, single replicate
Procedure: (§2) We performed a second validation of the effectiveness of our machine learning models using a different stressor. We focused on therapy-induced senescence (TIS, Supplementary Fig. 6a), where human epithelial cancerous cells (A549) were induced to become senescent by addition of etoposide. Cells were treated with 100 μM etoposide for 48 h, followed by another three days of exposure to media in standard conditions.
(§3) We performed experimental validation of the compounds with z-score > 8 (Fig. 2e). […] We employed two cellular models of senescence: one of OIS and a second one of TIS. For the OIS case, we utilised IMR90 ER:RAS cells with 4-OHT at 100 nM. […] For the TIS model, we used A549 cells with etoposide at 100 μM. The exposure of the cells to etoposide lasted 48 h, after which period the cells were cultivated for a further three days with normal media.
(§4) IMR90 (CCL-186) human foetal lung fibroblasts and A549 (CCL-185) human lung adenocarcinoma cells were obtained from the American Type Culture Collection (ATCC, Manassas, VA). The cell lines were confirmed to be mycoplasma negative (Lonza MycoAlert, cat #LT07-118). IMR90 ER:RAS is a derivative of IMR90 cells expressing a switchable version of oncogenic H-Ras[84]. IMR90 ER:RAS and A549 cells were maintained in Dulbecco’s Modified Eagle Medium (DMEM, ThermoFisher) supplemented with foetal bovine serum (10%), L-glutamine (2 mM, ThermoFisher), and antibiotic-antimycotic solution (1%, ThermoFisher) and incubated under standard tissue culture conditions (37 °C and 5% CO2). For induction of the senescent phenotype, IMR90-ER:RAS cells were cultured in hydroxytamoxifen (4-OHT) (Sigma) added media at 100 nM final concentration. IMR90 were kept in culture for over 27 passages for replicative senescence. Cells were tested for mycoplasma on a regular basis.
(§5) Cells were seeded (50 μL per well) into 384-well plates (IMR90 ER:RAS cells in Nunc Optical Bottom Polybase Microplates [#142761, Thermo Scientific, Rochester, NY] and A549 cells in CELLSTAR Cell Culture Microplates [#781091, Greiner Bio-One, Kremsmünster, Austria]). Cells were incubated under standard tissue culture conditions for 24 h before the addition of compounds. Passage 14 IMR90 ER:RAS cells were seeded at 1300 cells per well in the control condition, and at 1600 cells per well in the senescent case. Passage 34 A549 cells were seeded at 7000 cells per well in the control condition, and at 10,000 cells per well in the senescent case.
(§6) Dose response plates were prepared with a DMSO control and a 10-point […] concentration range, and added to the compounds using a D300e digital dispenser (Tecan Trading AG, Switzerland) at a final concentration of between 10 μM and 10 nM. Every screened condition was carried out in triplicate. After 72 h of incubation with exposure to the compounds, cells were fixed by the addition of an equal volume of formaldehyde (8%, 50 μL; #BP531-500, Fisher Bioreagents, Fisher Scientific, Loughborough, Leicestershire) to the existing media, incubated at room temperature (30 min), and washed three times in phosphate-buffered saline (PBS). Cells were then permeabilised in Triton-X100 (0.1%, 50 μL) and incubated at room temperature (30 min) followed by three more washes with PBS.
(§7) Cells were stained with Hoechst 33342 for nuclei count (excitation/emission wavelength at 387/447 […], DAPI channel, original concentration at 10 mg/ml, final concentration at 2 μg/ml; H1399, Molecular Probes, Eugene, OR). The staining solution was prepared in bovine serum albumin solution (10%). The staining solution was added to each well (30 μL) and incubated in the dark at room temperature (30 min), followed by three washes with PBS and no final aspiration. Plates were foil sealed.
(§8) Plates were imaged on an ImageXpress micro XLS (Molecular Devices, Eugene, OR) equipped with a robotic plate loader (Scara4, PAA, UK).

[7] = test system: non-senescent control A549 cells; assay: Nuclei count senolytic assay, TIS model, non-senescent control cells; settings: for % Cell Survival: control cells, single replicate
Procedure: as §2, §3, §4, §5, §6, §7, §8

SMILES: COc1cc([C@@H]2c3cc4c(cc3[C@@H](O[C@@H]3O[C@@H]5CO[C@@H](C)O[C@H]5[C@H](O)[C@H]3O)[C@H]3COC(=O)[C@H]23)OCO4)cc(OC)c1O [Etoposide]
- % BrdU positive cells [1]: 3.24% and 11.47% and 6.41% and 6.29%

SMILES: COC1CC(OC2CCC3(C)C(CCC4C3CCC3(C)C(C5=CC(=O)OC5)C(OC(C)=O)CC43O)C2)OC(C)C1O (stereo not drawn) [OLE]
- p16 mRNA expression, mean (Test details, Mean 2) [2]: 0.5169
- p21 mRNA expression, mean (Test details, Mean 2) [2]: 0.5115
- p16 mRNA expression, mean (Test details, Mean 2) [3]: 0.5298
- p21 mRNA expression, mean (Test details, Mean 2) [3]: 0.4442
- Il1a mRNA expression, mean (Mean 2) ([4]; n=3): 0.411
- Il8 mRNA expression, mean (Mean 2) ([4]; n=3): 0.5871
- Il1b mRNA expression, mean (Mean 2) ([4]; n=4): 0.4327
- Il1a mRNA expression, mean (Mean 2) ([5]; n=4): 0.4376
- Il8 mRNA expression, mean (Mean 2) ([5]; n=5): 0.3662
- Il1b mRNA expression, mean (Mean 2) ([5]; n=6): 0.7128

- IC50 ([6]; Homo sapiens, TIS model, etoposide-induced senescent A549, nuclei count, 72 h): 0.44 µM
- IC50 ([7]; Homo sapiens, TIS model, non-senescent A549, nuclei count, 72 h): 10.2 µM
SMILES: CC1(C)CCC(c2ccc(Cl)cc2)=C(CN2CCN(c3ccc(C(=O)NS(=O)(=O)c4ccc(N[C@H](CCN5CCOCC5)CSc5ccccc5)c(S(=O)(=O)C(F)(F)F)c4)cc3)CC2)C1 [navitoclax, reference compound]
- viability at 10 µM ([6]; Homo sapiens, A549, log (dose) [M] -5, Senescent cells, mean, read-out: Mean % Cell Survival): 6.32%
- viability at 4.68 µM ([6]; Homo sapiens, A549, log (dose) [M] -5.33, Senescent cells, mean, read-out: Mean % Cell Survival): 13.6%
- viability at 2.19 µM ([6]; Homo sapiens, A549, log (dose) [M] -5.66, Senescent cells, mean, read-out: Mean % Cell Survival): 17.1%
- viability at 1 µM ([6]; Homo sapiens, A549, log (dose) [M] -6, Senescent cells, mean, read-out: Mean % Cell Survival): 27.7%
- viability at 0.468 µM ([6]; Homo sapiens, A549, log (dose) [M] -6.33, Senescent cells, mean, read-out: Mean % Cell Survival): 43.7%
- viability at 0.219 µM ([6]; Homo sapiens, A549, log (dose) [M] -6.66, Senescent cells, mean, read-out: Mean % Cell Survival): 65.4%
- viability at 0.1 µM ([6]; Homo sapiens, A549, log (dose) [M] -7, Senescent cells, mean, read-out: Mean % Cell Survival): 94%
- viability at 0.0468 µM ([6]; Homo sapiens, A549, log (dose) [M] -7.33, Senescent cells, mean, read-out: Mean % Cell Survival): 91.8%
- viability at 0.0219 µM ([6]; Homo sapiens, A549, log (dose) [M] -7.66, Senescent cells, mean, read-out: Mean % Cell Survival): 109%
- viability at 0.01 µM ([6]; Homo sapiens, A549, log (dose) [M] -8, Senescent cells, mean, read-out: Mean % Cell Survival): 103%
- concentration at which a senolytic effect was reached ([6]; TIS A549, Hoechst labelling, marginal or no effect on normal cells): 1 µM
- % Cell Survival ([6]; log (dose) [M] -5): 4.269% and 4.259% and 10.4231%
- % Cell Survival ([6]; log (dose) [M] -5.33): 11.4818% and 14.3371% and 14.9601%
- % Cell Survival ([6]; log (dose) [M] -5.66): 15.9961% and 17.9964% and 17.29%
- % Cell Survival ([6]; log (dose) [M] -6): 23.7488% and 24.4151% and 34.8866%
- % Cell Survival ([6]; log (dose) [M] -6.33): 46.0255% and 39.6521% and 45.3096%
- % Cell Survival ([6]; log (dose) [M] -6.66): 63.9352% and 60.5879% and 71.5512%
- % Cell Survival ([6]; log (dose) [M] -7): 88.2728% and 86.8026% and 106.99%
- % Cell Survival ([6]; log (dose) [M] -7.33): 62.8557% and 104.139% and 108.461%
- % Cell Survival ([6]; log (dose) [M] -7.66): 92.002% and 113.377% and 120.969%
- % Cell Survival ([6]; log (dose) [M] -8): 100.736% and 105.159% and 103.556%
- viability at 10 µM ([7]; Homo sapiens, A549, log (dose) [M] -5, Control cells, mean, read-out: Mean % Cell Survival): 61.6%
- viability at 4.68 µM ([7]; Homo sapiens, A549, log (dose) [M] -5.33, Control cells, mean, read-out: Mean % Cell Survival): 105%
- viability at 2.19 µM ([7]; Homo sapiens, A549, log (dose) [M] -5.66, Control cells, mean, read-out: Mean % Cell Survival): 107%
- viability at 1 µM ([7]; Homo sapiens, A549, log (dose) [M] -6, Control cells, mean, read-out: Mean % Cell Survival): 129%
- viability at 0.468 µM ([7]; Homo sapiens, A549, log (dose) [M] -6.33, Control cells, mean, read-out: Mean % Cell Survival): 116%
- viability at 0.219 µM ([7]; Homo sapiens, A549, log (dose) [M] -6.66, Control cells, mean, read-out: Mean % Cell Survival): 109%
- viability at 0.1 µM ([7]; Homo sapiens, A549, log (dose) [M] -7, Control cells, mean, read-out: Mean % Cell Survival): 97.7%
- viability at 0.0468 µM ([7]; Homo sapiens, A549, log (dose) [M] -7.33, Control cells, mean, read-out: Mean % Cell Survival): 98.7%
- viability at 0.0219 µM ([7]; Homo sapiens, A549, log (dose) [M] -7.66, Control cells, mean, read-out: Mean % Cell Survival): 96.8%
- viability at 0.01 µM ([7]; Homo sapiens, A549, log (dose) [M] -8, Control cells, mean, read-out: Mean % Cell Survival): 98.9%
- % Cell Survival ([7]; log (dose) [M] -5): 52.0394% and 75.3687% and 57.3758%
- % Cell Survival ([7]; log (dose) [M] -5.33): 116.878% and 75.1475% and 123.277%
- % Cell Survival ([7]; log (dose) [M] -5.66): 112.518% and 117.404% and 91.8458%
- % Cell Survival ([7]; log (dose) [M] -6): 119.058% and 135.177% and 132.987%
- % Cell Survival ([7]; log (dose) [M] -6.33): 128.692% and 108.112% and 112.083%
- % Cell Survival ([7]; log (dose) [M] -6.66): 114.276% and 101.991% and 109.489%
- % Cell Survival ([7]; log (dose) [M] -7): 92.6864% and 99.5575% and 100.964%
- % Cell Survival ([7]; log (dose) [M] -7.33): 97.6793% and 98.2301% and 100.074%
- % Cell Survival ([7]; log (dose) [M] -7.66): 95.0774% and 99.4838% and 95.7746%
- % Cell Survival ([7]; log (dose) [M] -8): 98.1716% and 98.2301% and 100.445%
